# Experimental data published in US20250221991A1, “COMBINATION THERAPY FOR THE TREATMENT OF CANCER METASTASES” (University of Cincinnati, priority 2024, published 2025).
# Several values for one entry are separate records, joined by “and”; a condition that tells them apart may be missing. Equal entries are not always repeated.
# What was measured:
# PANC-1 cells [1] = test: Deadherent survival (WST-1, poly-HEMA vs plastic), PANC-1; type: cell-based, human
# Procedure: (§1) Cells were seeded at a density of 10^4 cells/well in 96-well plates, either uncoated or in poly(2-hydroxyethyl methacrylate) (poly-HEMA) coated wells (3 mg of poly-HEMA in 50 μL 95% ethanol, let dry overnight, then washed twice with PBS, followed by one wash with medium before initiation of the experiment). Drugs were added in triplicates at the indicated concentrations for an incubation time of 48 h. At the 48-h time point, the indicator WST-1 was added to each well at 10% v/v final concentration. At the 60-, 80-, and 120-minute time points, the absorbance was measured at 450 nm using a MRX-TC Revelation plate reader.
# MIA PaCa-2 cells [2] = test: Soft agar colony formation, MIA PaCa-2; type: cell-based, human
# Procedure: (§2) The capability of cells to grow under anchorage-independent conditions is a hallmark of transformation and correlates with tumor progression in vivo. The assay was performed in a 60-mm dish with a bottom layer of 2 mL 0.5% agar (Noble Agar, Sigma) in the culture medium that is designated to the cells. The bottom agar was allowed to be solidified in the biosafety cabinet. Cells were suspended in 0.2% agar for PANC-1 cells, MIA PaCa-2 cells, and B16-F10 cells, but in 0.15% agar for MDA-MB-231 cells and 4T1 cells and then plated (1×10^5 cells/2 mL/dish) on top of the bottom layer. 400 μL culture medium with or without the indicated doses of drug treatment was added to cover the top agar layer every other day over 2 weeks for PANC-1, MIA PaCa-2 cells and over 3 weeks for MDA-MB-231 cells, respectively. The colonies in five microscopic fields (top, bottom, left, right and center) of each dish were photographed. […] Each treatment was repeated thrice.
# MDA-MB-231 cells [3] = test: Deadherent survival (WST-1, poly-HEMA vs plastic), MDA-MB-231; type: cell-based; details: for concentration range of significant growth inhibition on poly-HEMA: deadherent cells
# Procedure: as §1
# MIA PaCa-2 cells [4] = test: Deadherent survival (WST-1, poly-HEMA vs plastic), MIA PaCa-2; type: cell-based, human
# Procedure: as §1
# PANC-1 cells [5] = test: Soft agar colony formation, PANC-1; type: cell-based, human
# Procedure: as §2
# MDA-MB-231 cells [6] = test: Soft agar colony formation, MDA-MB-231; type: cell-based
# Procedure: as §2
# [7] = same concentration range that completely suppressed soft agar colony formation
smiles,measurement,setting,value
"C[S+](C)[O-] [DMSO, dimethyl sulfoxide]",effect on growth when plated on plastic or on poly-HEMA,PANC-1 cells [1]; [7],no effect
same,soft agar colony frequency,MIA PaCa-2 cells [2]; 0.125%-0.25% (v/v),without impacting
same,effect on growth when plated on plastic or on poly-HEMA,MDA-MB-231 cells [3]; [7],no effect
same,effect on growth when plated on plastic or on poly-HEMA,MIA PaCa-2 cells [4]; [7],no effect
same,soft agar colony frequency,PANC-1 cells [5]; 0.125%-0.25% (v/v),without impacting
[NH4+].[NH4+].[SH-].[SH-].[S]=[Mo]=[S] [ammonium tetrathiomolybdate],inhibition of soft agar colony size,MDA-MB-231 cells [6]; 0.5 μg/mL,43%
same,inhibition of soft agar colony size,MDA-MB-231 cells [6]; 1 μg/mL,75%
same,inhibition of soft agar colony size,MDA-MB-231 cells [6]; 2 μg/mL,93%
same,inhibition of soft agar colony size,MDA-MB-231 cells [6]; 4 μg/mL,94%
CCCCNc1cc(C(=O)O)cc(S(N)(=O)=O)c1Oc1ccccc1 [bumetanide],concentration suppressing both adherent and deadherent cells,"MDA-MB-231 cells [3]; 48 h, WST-1",above 50 μg/mL
same,concentration range of significant growth inhibition on poly-HEMA,"MDA-MB-231 cells [3]; 48 h, WST-1",15 to 35 µg/mL
same,effect on the same cells in the adherent (plated) state,MDA-MB-231 cells [3]; in the concentration range that significantly inhibits cells on poly-HEMA,without affecting
same,concentration range suppressing proliferation on poly-HEMA,MIA PaCa-2 cells [4]; deadherent cells,1 to 5 µg/mL
Cc1ccc(Nc2nccc(N(C)c3ccc4c(C)n(C)nc4c3)n2)cc1S(N)(=O)=O [pazopanib],concentration inhibiting growth under both conditions (adherent and deadherent),PANC-1 cells [1]; 48 h,Above 2 μg/mL
same,concentration range increasing adherent cell growth,"PANC-1 cells [1]; adherent cells, 48 h",0.4 to 2 µg/mL
same,starting concentration significantly decreasing growth of deadherent cells,"PANC-1 cells [1]; poly-HEMA, 48 h",≥ 0.2 µg/mL
same,concentration inhibiting soft agar colony formation,MIA PaCa-2 cells [2],2.1 μM and 1 μg/mL
same,concentration range of significant growth inhibition on poly-HEMA,"MDA-MB-231 cells [3]; 48 h, WST-1",0.4 to 2.0 µg/mL
same,concentration at which inhibition of soft agar colony formation reaches significance,MDA-MB-231 cells [6],0.5 μM and 0.24 μg/mL
same,concentration at which inhibition of soft agar colony formation reaches significance,PANC-1 cells [5],0.25 μM and 0.12 μg/mL
